Results from PMC9610999, “Itraconazole-Induced Increases in Gilteritinib Exposure Are Mediated by CYP3A and OATP1B” (Molecules, 2022).
Read-outs that look alike come from different tables or passages of the source.

Columns and labels:
[1] = Plasma pharmacokinetics of oral gilteritinib in mice, with or without itraconazole pretreatment; type: in vivo; conditions: for Cmax / AUC(0-t): male, mouse, plasma, po, 10 mg/kg, gilteritinib 10 mg/kg p.o., mean (SD); for AUC(0-t): read-out: Gilteritinib AUC0–24h
Excerpt: Male and female CYP3A(−/−) mice and age- and sex-matched wild-type mice on an FVB/NTac (CYP3A(+/+)) background were bred in-house. Male OATP1B2(−/−) mice and age and sex-matched wild-type mice on a DBA1/lacJ (OATP1B2(+/+)) background were bred in-house. All mice were aged 8–16 weeks and weighed 18–30 g. Littermates of the same sex were housed in groups of five or fewer in a temperature- and light-controlled environment (12-h light/dark cycles) in cages lined with absorbent bedding. Mice were given free access to standard food and water. All breeding and experimental procedures were conducted with the approval of the University Laboratory Animal Resources Animal Care and Use Committee at The Ohio State University under protocol number 201500000101-R2.
For in vivo pharmacokinetic studies, mice were randomly divided into experimental groups of equal size. Gilteritinib powder was dissolved in 0.5% methylcellulose solution in distilled sterile water at a concentration of 2 mg/mL and was administered via oral gavage at a body weight normalized dose of 10 mg/kg. The dose of gilteritinib was chosen based on previous preclinical characterization of gilteritinib pharmacokinetics. Itraconazole powder was dissolved in a solvent comprised of 5% DMSO, 70% PEG300, and 25% distilled sterile water and administered orally at a dose of 100 mg/kg. The dose of itraconazole was based on previous work studying preclinical DDI with itraconazole. For combination treatments, itraconazole was always given 30 min prior to gilteritinib.
Pharmacokinetic studies were performed in accordance with a repeat sampling strategy described previously. After a single dose of gilteritinib, 20–40 μL of whole blood samples were collected from each mouse at time points ranging from 0.5–24 h after dosing. Samples procured during the first three time points were collected from the submaxillary vein using a sterile, disposable 4 mm or 5 mm Goldenrod animal blood lancet and collected into a glass micro-hematocrit heparinized capillary tube. For samples obtained at the fourth and fifth time points, the mice were sedated using 2% isoflurane and whole blood was obtained via the retro-orbital venous plexus. At the final time point, mice were euthanized via carbon dioxide inhalation, whole blood was collected by cardiac puncture with a needle and 1-mL syringe and transferred to a 1.5-mL heparinized tube. All samples were centrifuged at 13,000× g for 5 min and the plasma supernatant was transferred to a 0.5-mL tube, snap-frozen on dry ice, and stored at −80 °C until the day of analysis.
Pharmacokinetic parameters were estimated using non-compartmental analyses using Phoenix WinNonlin version 8.1 (Certara, Princeton, NJ, USA). Estimated measures of exposure included the peak plasma concentration (Cmax) and the area under the plasma concentration–time curve (AUC).

[2] = target: T1, OATP1B1 (Homo sapiens, UniProt Q9Y6L6); assay: Competitive counterflow assay with ACE in OATP1B1 overexpressing HEK293 cells; type: cell-based; conditions: gilteritinib 0.1–20 μM, 5 μM ACE, normalized to ACE alone
T1 construct: expressed in transfected cells; host or cells: HEK293
T1 sequence (Q9Y6L6 1-691): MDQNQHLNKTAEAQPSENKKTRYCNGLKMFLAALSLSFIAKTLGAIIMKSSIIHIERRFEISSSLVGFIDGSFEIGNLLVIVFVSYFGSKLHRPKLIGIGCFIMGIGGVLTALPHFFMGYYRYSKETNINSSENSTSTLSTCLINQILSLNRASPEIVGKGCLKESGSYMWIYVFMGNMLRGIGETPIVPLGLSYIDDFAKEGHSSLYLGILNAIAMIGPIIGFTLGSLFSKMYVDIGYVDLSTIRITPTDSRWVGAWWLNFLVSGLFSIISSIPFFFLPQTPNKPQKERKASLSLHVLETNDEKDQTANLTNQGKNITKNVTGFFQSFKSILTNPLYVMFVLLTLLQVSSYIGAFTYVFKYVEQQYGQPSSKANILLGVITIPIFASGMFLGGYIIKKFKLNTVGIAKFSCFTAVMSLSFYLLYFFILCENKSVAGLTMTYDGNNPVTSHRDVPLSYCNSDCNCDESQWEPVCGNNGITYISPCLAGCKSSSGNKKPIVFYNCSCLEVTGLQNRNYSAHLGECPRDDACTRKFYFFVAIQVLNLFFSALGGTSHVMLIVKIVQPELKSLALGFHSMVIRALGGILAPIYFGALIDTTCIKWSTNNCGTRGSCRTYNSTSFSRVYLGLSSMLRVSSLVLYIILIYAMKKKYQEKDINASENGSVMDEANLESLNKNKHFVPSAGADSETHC
Method: OATP1B1 overexpressing cells or vector control were seeded in 96-well plates in 200 μL DMEM and incubated for 24 h. The medium was aspirated off and the cells were washed three times with PBS at room temperature. The cells were then treated with 100 μL of 5 μM ACE and incubated at 37 °C for 15 min in uptake buffer. The supernatant was aspirated off and 100 μL of 5 μM ACE alone or in combination with DMSO or gilteritinib (0.1–20 μM) in uptake buffer were added to the cells. The plates were further incubated for 20 min at 37 °C. The supernatant was removed, and the cells were washed three times with 200 μL of ice-cold PBS. Lastly, 200 μL of 0.1 N NaOH was added to cells and incubated for 20 min at room temperature. Fluorescence was measured on a plate reader at excitation and emission wavelengths of 460 and 510 nm, respectively. The intracellular concentrations of ACE were calculated by comparison of fluorescence values observed with control samples incubated with ACE alone, which were set to 100%.

[3] = human, in vivo; cited from earlier work
[4] = CYP3A(−/−) on FVB/NTac background, CYP3A(−/−) male mice, itraconazole 100 mg/kg 30 min before
[5] = CYP3A(−/−) on FVB/NTac background, CYP3A(−/−) male mice, no co-treatment
[6] = DBA/1J (wild-type), Wild-type DBA/1J male mice, no co-treatment
[7] = FVB (wild-type), Wild-type FVB male mice, itraconazole 100 mg/kg 30 min before
[8] = FVB (wild-type), Wild-type FVB male mice, no co-treatment
[9] = OATP1B2(−/−) on DBA1/lacJ background, OATP1B2(−/−) male mice, itraconazole 100 mg/kg 30 min before
[10] = OATP1B2(−/−) on DBA1/lacJ background, OATP1B2(−/−) male mice, no co-treatment, experiment compared with itraconazole co-treatment
[11] = OATP1B2(−/−) on DBA1/lacJ background, OATP1B2(−/−) male mice, no co-treatment, experiment compared with wild-type DBA/1J

Q: What does the source list for CCc1nc(C(N)=O)c(Nc2ccc(N3CCC(N4CCN(C)CC4)CC3)c(OC)c2)nc1NC1CCOCC1 [Gilteritinib]?
A: Gilteritinib AUC Fold Increase ([1]; CYP3A(−/−) mice, no co-treatment, vs. WT): 1.3 (vs. WT) fold; Gilteritinib AUC Fold Increase ([1]; CYP3A(−/−) mice, no co-treatment, vs. WT, listed as gilteritinib): 1.3 fold; Gilteritinib AUC Fold Increase ([1]; CYP3A(−/−) mice, with itraconazole 100 mg/kg vs. Vehicle): 0.97 (vs. Vehicle) fold; Gilteritinib AUC Fold Increase ([1]; OATP1B2(−/−) mice, no co-treatment, vs. WT): 1.4 (vs. WT) fold; Gilteritinib AUC Fold Increase ([1]; OATP1B2(−/−) mice, no co-treatment, vs. WT, listed as gilteritinib): 1.4 fold; Gilteritinib AUC Fold Increase ([1]; OATP1B2(−/−) mice, with itraconazole 100 mg/kg vs. Vehicle): 0.84 (vs. Vehicle) fold; Gilteritinib AUC Fold Increase ([1]; Wild-type FVB mice, with itraconazole 100 mg/kg vs. Vehicle): 2.5 (vs. Vehicle) fold; Gilteritinib AUC Fold Increase ([1]; Wild-type FVB mice, with itraconazole 100 mg/kg vs. Vehicle, listed as gilteritinib): about 2.5 fold; Cmax [1, 4]: 430 ng/mL; AUC(0-t) [1, 4]: 5840 ng·h/mL; Cmax [1, 5]: 380 ng/mL; AUC(0-t) [1, 5]: 5990 ng·h/mL; Cmax [1, 6]: 260 ng/mL; AUC(0-t) [1, 6]: 4550 ng·h/mL; Cmax [1, 7]: 960 ng/mL; AUC(0-t) [1, 7]: 11500 ng·h/mL; Cmax [1, 8]: 310 ng/mL; AUC(0-t) [1, 8]: 4650 ng·h/mL; Cmax [1, 9]: 1350 ng/mL; AUC(0-t) [1, 9]: 15000 ng·h/mL; Cmax [1, 10]: 1430 ng/mL; AUC(0-t) [1, 10]: 17800 ng·h/mL; Cmax [1, 11]: 390 ng/mL; AUC(0-t) [1, 11]: 6160 ng·h/mL; Effect on fluorescent signal of ACE in cells (competitive counterflow; transported substrate) [2]: decreased the fluorescent signal in cells in a concentration-dependent manner; Increase in gilteritinib exposure when co-administered with itraconazole [3]: 2.2 fold
